According to US10294202B2, “Pyrrolidinones as herbicides” (FMC Corporation, priority 2013, dated 2019):
Where two headings read alike, the source gives them in different places.

Assays:
[1] = system: velvetleaf; assay: Test A pre-/postemergence herbicide test; assay type: in vivo, Abutilon theophrasti; conditions: for pest or weed control at 1000 g/ha: 1000 g ai/ha
Summary of the method: (§1)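 Seeds in loam–sand blend received preemergence directed soil spray; separately, plants 2–10 cm at one- to two-leaf stage received postemergence spray, both with test chemicals in non-phytotoxic solvent with surfactant. After ~10 days in greenhouse, injury rated visually against untreated controls, 0 (no effect) to 100 (complete control).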

[2] = system: rice; assay: Test C flooded paddy test; assay type: in vivo, Oryza sativa; conditions: Flood
Summary of the method: (§2)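 2-leaf stage; flood 3 cm over soil; compound into paddy water; depth held; greenhouse 13–15 d; visual % control vs untreated (0 = none, 100 = complete); "-" = not tested.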

[3] = system: kochia; assay: Test C pre-/postemergence herbicide test; assay type: in vivo, Kochia scoparia
Summary of the method: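 Pre-emergence: seeds sown in loam/sand blend and treated with compound in surfactant-containing solvent. Post-emergence: plants at 2–18 cm (1- to 4-leaf stage) in peat-based medium sprayed with the same formulation. Visual rating versus controls after 13–15 days in greenhouse, scale 0 (no effect) to 100 (complete control).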

[4] = system: barnyardgrass; assay: Test C flooded paddy test; assay type: in vivo, Echinochloa crus-galli; conditions: Flood
Summary of the method: as §2

[5] = system: ducksalad; assay: Test C flooded paddy test; assay type: in vivo, Heteranthera limosa; conditions: Flood
Summary of the method: as §2

[6] = system: kochia; assay: Test A pre-/postemergence herbicide test; assay type: in vivo, Kochia scoparia
Summary of the method: as §1

[7] = system: blackgrass; assay: Test A postemergence herbicide test; assay type: in vivo, Alopecurus myosuroides
Summary of the method: (§3)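 Injury was rated visually about 10 days after treatment on a 0 (no effect) to 100 (complete control) scale, compared with untreated plants. Test chemicals were sprayed postemergence onto greenhouse plants 2–10 cm high at one to two leaves, grown in a loam–sand blend.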

[8] = system: galium; assay: Test A postemergence herbicide test; assay type: in vivo, Galium aparine
Summary of the method: as §3

[9] = Postemergence, 125 g ai/ha, 0 to 100 scale, 0 no effect, 100 complete control
[10] = Postemergence, 500 g ai/ha, 0 to 100 scale (0 no effect, 100 complete control)
[11] = Preemergence, 125 g ai/ha, visual rating on 0 to 100 scale (0 no effect, 100 complete control)
[12] = preemergence, 500 g ai/ha, 0 to 100 scale
[13] = 62 g ai/ha, scale of 0 to 100 where 0 is no effect and 100 is complete control, 13 to 15 days
[14] = Preemergence, 62 g ai/ha, scale 0 to 100
[15] = Preemergence, 125 g ai/ha, scale 0 to 100 (0 no effect, 100 complete control)
[16] = 125 g ai/ha, scale of 0 to 100 where 0 is no effect and 100 is complete control, 13 to 15 days
[17] = Postemergence, 31 g ai/ha, scale 0 (no effect) to 100 (complete control)
[18] = Postemergence, 62 g ai/ha, scale 0 to 100 (0 no effect, 100 complete control)
[19] = Postemergence, 125 g ai/ha, scale 0 to 100 (0 no effect, 100 complete control)
[20] = Postemergence, 250 g ai/ha, scale 0 to 100 (0 no effect, 100 complete control)
[21] = 125 g ai/ha, 0 to 100 scale, 0 no effect, 100 complete control
[22] = 500 g ai/ha, 0 to 100 scale (0 no effect, 100 complete control)
[23] = Postemergence, 31 g ai/ha, scale 0 to 100 (0 no effect, 100 complete control)
[24] = Postemergence, 62 g ai/ha, scale 0 (no effect) to 100 (complete control)
[25] = 125 g ai/ha, 0 to 100 scale, 0 is no effect, 100 is complete control
[26] = Abutilon theophrasti, post-emergence, 240 h, Postemergence, 500 g ai/ha, 0 to 100 scale (0 no effect, 100 complete control), read-out: Plant response rating, Velvetleaf
[27] = Abutilon theophrasti, pre-emergence, 240 h, preemergence, 500 g ai/ha, 0 to 100 scale, read-out: Plant response rating, Velvetleaf
[28] = 31 g ai/ha, scale of 0 to 100 where 0 is no effect and 100 is complete control, 13 to 15 days
[29] = 125 g ai/ha, visual rating on 0 to 100 scale (0 no effect, 100 complete control), approx. 10 days

SMILES	Plant response rating, Velvetleaf [1, 9]	Plant response rating, Velvetleaf [1, 10]	Velvetleaf plant response rating [1, 11]	Plant response rating, Velvetleaf [1, 12]	Plant response rating, Rice [2, 13]	Plant response rating, Rice ([2]; 250 g ai/ha, scale 0 to 100)	Plant response rating, Kochia [3, 14]	Plant response rating, Kochia [3, 15]	Plant response rating, Barnyardgrass [4, 13]	Plant response rating, Barnyardgrass ([4]; 250 g ai/ha, scale 0 to 100)	Plant response rating, Ducksalad [5, 13]	Plant response rating, Ducksalad ([5]; 250 g ai/ha, scale 0 to 100)	Plant response rating, Rice [2, 16]	Plant response rating, Kochia [3, 17]	Plant response rating, Kochia [3, 18]	Plant response rating, Kochia [3, 19]	Plant response rating, Kochia [3, 20]	Plant response rating, Barnyardgrass [4, 16]	Plant response rating, Ducksalad [5, 16]	further results
O=C1NCC(c2ccc(Cl)c(Cl)c2)C1C(=O)Nc1ccccc1F (racemic) [Compound 14]	0	90	0	0	0	0	0	0	0	0	40	85	–	–	–	–	–	–	–	–
O=C1NCC(c2ccc(F)c(F)c2)C1C(=O)Nc1cccc(F)c1F (racemic) [Compound 101]	50	70	30	40	–	0	–	–	–	55	–	95	0	45	30	50	50	20	90	Plant response rating, Rice ([2]; 500 g ai/ha, scale 0 to 100): 0; Plant response rating, Rice ([2]; 1000 g ai/ha, scale 0 to 100): 10; Plant response rating, Barnyardgrass ([4]; 500 g ai/ha, scale 0 to 100): 60; Plant response rating, Barnyardgrass ([4]; 1000 g ai/ha, scale 0 to 100): 75; Plant response rating, Ducksalad ([5]; 500 g ai/ha, scale 0 to 100): 100; Plant response rating, Ducksalad ([5]; 1000 g ai/ha, scale 0 to 100): 100
Cc1ccccc1NC(=O)C1C(=O)NCC1c1cccc(C(F)(F)F)c1 (racemic) [Compound 109]	–	–	–	–	–	–	–	–	–	–	–	–	–	0	0	0	0	–	–	Plant response rating, Kochia [6, 9]: 0; Plant response rating, Kochia [6, 10]: 0; Kochia plant response rating [6, 11]: 0; Plant response rating, Kochia [6, 12]: 0; Plant response rating, Blackgrass [7, 21]: 50; Plant response rating, Blackgrass [7, 22]: 80; Plant response rating, Galium [8, 21]: 30; Plant response rating, Galium [8, 22]: 60
O=C1NCC(c2ccc(C(F)(F)F)cc2)C1C(=O)Nc1cccc(F)c1F (racemic) [Compound 202]	–	–	–	–	–	–	–	–	–	–	–	–	–	–	–	80	80	–	–	Plant response rating, Kochia ([6]; 125 g ai/ha, visual rating, 0 to 100 scale, 0 no effect, 100 complete control, approximately 10 days, preemergence): 70; Plant response rating, Kochia ([6]; Postemergence, 125 g ai/ha, 0 to 100 scale, 0 is no effect, 100 is complete control): 80; Kochia plant response rating (0 to 100 scale, 0 is no effect, 100 is complete control) ([6]; Postemergence, 500 g ai/ha): 90; Plant response rating, Kochia ([6]; preemergence, 500 g ai/ha, 0 to 100 scale, 0 is no effect and 100 is complete control): 80; Plant response rating, Kochia [3, 23]: 70; Plant response rating, Kochia [3, 24]: 75; Plant response rating, Blackgrass [7, 25]: 50; Blackgrass plant response rating (0 to 100 scale, 0 is no effect, 100 is complete control) ([7]; 500 g ai/ha): 50; Plant response rating, Galium [8, 25]: 60; Galium plant response rating (0 to 100 scale, 0 is no effect, 100 is complete control) ([8]; 500 g ai/ha): 60
O=C1NCCC1C(=O)N(c1ccc(F)c(F)c1)c1ccccc1F (stereo not shown) [Compound 5, N-(3,4-difluorophenyl)-N-(2-fluorophenyl)-2-oxo-3-pyrrolidinecarboxamide]	–	–	0	–	0	0	0	0	0	55	30	80	0	–	–	–	–	20	70	pest or weed control at 500 g/ha [1, 26]: 0%; pest or weed control at 500 g/ha [1, 27]: 0%
O=C1NCC(c2ccc(F)c(F)c2)C1C(=O)Nc1cccc(F)c1F (stereo not shown) [Compound 17, N-(2,3-difluorophenyl)-4-(3,4-difluorophenyl)-2-oxo-3-pyrrolidinecarboxamide]	–	–	–	–	0	0	50	60	0	25	80	100	0	0	0	0	5	20	100	pest or weed control at 1000 g/ha ([1]; Abutilon theophrasti, post-emergence, 240 h, Postemergence, 0 to 100 scale (0 no effect, 100 complete control), read-out: Plant response rating, Velvetleaf): 50%; pest or weed control at 1000 g/ha ([1]; Abutilon theophrasti, pre-emergence, 240 h, Preemergence, visual rating on 0 to 100 scale (0 no effect, 100 complete control), approx. 10 days, read-out: Plant response rating, Velvetleaf): 40%; Plant response rating, Rice [2, 28]: 0; Plant response rating, Barnyardgrass [4, 28]: 0; Plant response rating, Ducksalad [5, 28]: 40
O=C1NCC(c2ccc(Cl)c(F)c2)C1C(=O)Nc1cccc(F)c1F (stereo not shown) [Compound 52]	0	0	0	20	10	15	10	15	0	0	40	95	10	30	35	40	50	0	75	Plant response rating, Rice [2, 28]: 10; Plant response rating, Barnyardgrass [4, 28]: 0; Plant response rating, Ducksalad [5, 28]: 40
O=C1NCC(c2ccc(C(F)(F)F)cc2)C1C(=O)Nc1ccccc1F (stereo not shown) [Compound 79, N-(2-fluorophenyl)-2-oxo-4-[4-(trifluoromethyl)phenyl]-3-pyrrolidinecarboxamide]	–	–	0	–	–	–	–	–	–	–	–	–	–	5	55	55	–	–	–	pest or weed control at 125 g/ha ([1]; Abutilon theophrasti, post-emergence, 240 h, Postemergence, 125 g ai/ha, 0 to 100 scale, 0 no effect, 100 complete control, read-out: Plant response rating, Velvetleaf): 10%; pest or weed control at 500 g/ha [1, 26]: 60%; pest or weed control at 500 g/ha [1, 27]: 30%
O=C1NCC(c2cccc(Br)c2)C1C(=O)Nc1ccc(F)c(F)c1F (stereo not shown) [Compound 310]	–	–	–	–	–	–	–	–	–	–	–	–	–	–	–	–	80	–	–	Plant response rating, Kochia ([6]; Postemergence, 125 g ai/ha, visual rating on 0 to 100 scale (0 no effect, 100 complete control), approx. 10 days): 30; Plant response rating, Kochia [6, 10]: 30; Plant response rating, Kochia ([6]; Preemergence, 125 g ai/ha, 0 to 100 scale where 0 is no effect and 100 is complete control): 30; Kochia plant response rating ([6]; Preemergence, 500 g ai/ha, visual rating on 0 to 100 scale (0 no effect, 100 complete control)): 70; Plant response rating, Kochia [3, 23]: 40; Plant response rating, Kochia [3, 24]: 50; Plant response rating, Blackgrass [7, 29]: 30; Plant response rating, Blackgrass [7, 22]: 50; Plant response rating, Galium [8, 29]: 20; Plant response rating, Galium [8, 22]: 20
